According to PubChem BioAssay AID1963835 (Molecular Pharmacology Branch, DTP, NCI, 2024):

System: 699152-130-R-J1-PDC complex spheroid viability
Experiment: Anticancer human tumor 699152-130-R-J1-PDC patient-derived pancreatic carcinoma cell line growth inhibition [POLQ]
Conditions: for IC50: curve of first compound; for viability, T/C: stronger effect = lower value
Procedure: Multicellular complex tumor spheroid response to Polymerase (POL) inhibitors (novobiocin, ART-558, RP6685) in combination with a variety of drugs and investigational agents in selected tumor cell lines
The POL inhibitors (novobiocin, ART-558, and RP6685) were evaluated both individually and in combination with standard of care and investigational anticancer small molecules within a complex spheroid model of solid tumors. . Complex spheroids include a stromal component modeled by human endothelial cells (HUVEC) and fibroblasts modeled by human mesenchymal stem cells (MSCs). The concentration ranges selected for each drug and investigational agent were based upon clinically achievable concentrations if the clinical Cmax of the agent was known.
Compounds. The drugs and investigational agents: novobiocin (NSC847541), ART-558 (NSC835418), RP-6685 (NSC848927), peposertib (NSC802822), ceralasertib (NSC780249), elimusertib (NSC800525), camonsertib (NSC841442), AZD-1390 (NSC803789), olaparib (NSC753686), talazoparib (NSC767125), rucaparib (NSC756644), sotorasib (NSC818433), MRTX-1133 (NSC836407), SN-38 (NSC673596), topotecan (NSC609699), epotoside (NSC141540), doxorubicin (NSC123127), gemcitabine (NSC613327), 5-fluorouracil (NSC19893), paclitaxel (NSC125973), vemurafenib (NSC761431), MSA-2 (NSC828583), SN-011 (NSC837082), adavosertib (NSC754352), prexasertib (NSC758257), carboplatin (NSC241240) and oxaliplatin (NSC266046), were obtained from the National Cancer Institute (NCI) Developmental Therapeutics Program Chemical Repository (21). The FDA-approved anticancer drug set is available from the Developmental Therapeutics Program at https://dtp.cancer.gov/organization/dscb/obtaining/. […] The stock solutions were prepared in dimethyl sulfoxide (DMSO, Sigma-Aldrich, St. Louis, MO, cat. D2650), except for the platinum compounds which were prepared in saline (Quality Biological, Gaithersburg, MD, cat. 114-055-101), at 800-fold the tested concentration and stored at -70 degrees C prior to their use. All drugs and investigational agents were tested over a range starting from a high concentration at or near the clinical Cmax and decreasing in half-log increments. If the clinical Cmax for an agent had not been determined, the highest concentration tested was 10 microM, except for SN-38, which was tested at a high concentration of 1 microM.
Cell Culture. All cells were maintained in an incubator at 37 degrees C and 5% CO2 with 95% humidity. The PDC lines were cultured according to standard operating procedures established by the NCI PDMR (https://pdmr.cancer.gov). Table 3 of the manuscript, lists the cell lines along with the number of the three cell types plated to form the mct-spheroids and media for tumor cell growth. After thawing, all PDC lines, except 997537-175-T-J1-PDC and 415267-285-R-J2-PDC, were cultured in Matrigel-coated flasks prepared with a working solution of 1X Ham's F-12 nutrient mix, without supplementation (Thermo Fisher Scientific, cat. 11765054), 100 U/mL penicillin-streptomycin (Thermo Fisher Scientific, cat. 15140122), and 2.5% Matrigel (Corning Inc., Corning, NY, cat. 354248) for the first three passages. The two PDC lines 997537-175-T-J1-PDC and 415267-285-R-J2-PDC were cultured on uncoated flasks. The 857933-349-R-J2-PDC line was cultured in 6C/Colon 1B media containing advanced DMEM/F-12 (Thermo Fisher Scientific, cat. 12634028), 10 mM HEPES (Thermo Fisher Scientific, cat. 15630080), 1X GlutaMAX supplement (Thermo Fisher Scientific, cat. 35050061), 0.1 mg/mL primocin (InvivoGen, San Diego, CA, cat. ant-pm-2), 10% defined fetal bovine serum, heat inactivated (HyClone Laboratories Inc., Logan, UT, cat. SH30070.03HI), 50% L-WRN conditioned media (ATCC, cat. CRL-3276), 1.25 mM N-Acetyl-L-cysteine (Sigma-Aldrich, cat. A9165), 10 mM nicotinamide (Sigma-Aldrich, cat. N0636), 1X B-27 supplement (Thermo Fisher Scientific, cat. 17504044), 1X N-2 supplement (Thermo Fisher Scientific, cat. […]
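Note: spheroids exposed to agents for 7 days before viability reading.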
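Throughout, for viability, T/C: percent of DMSO vehicle control viability so 100% = vehicle and 0% = no viable signal.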

O=c1[nH]cc(F)c(=O)[nH]1 + Nc1ccc(C#CCN(C(=O)Cc2ncc(C(F)(F)F)cc2C(F)(F)F)c2ccc(F)cc2)nn1 was tested, and the IC50 (second compound 0.0316 µM) was over 10 µM, the IC50 (second compound 0.1 µM) was over 10 µM and the IC50 (second compound 0.316 µM) was over 10 µM. The IC50 (second compound 1 µM) was over 10 µM, the IC50 (second compound 3.16 µM) was over 10 µM and the IC50 (second compound 10 µM) was over 10 µM. It also gave a viability, T/C (second compound 0.0316 µM, first compound 0.0316 µM) of 105%, a viability, T/C (second compound 0.0316 µM, first compound 0.1 µM) of 105% and a viability, T/C (second compound 0.0316 µM, first compound 0.316 µM) of 99.3%. For the same compound, the viability, T/C (second compound 0.0316 µM, first compound 1 µM) was 97.9%, the viability, T/C (second compound 0.0316 µM, first compound 3.16 µM) was 98.1% and the viability, T/C (second compound 0.0316 µM, first compound 10 µM) was 82.1%. The viability, T/C (second compound 0.1 µM, first compound 0.0316 µM) was 100%, the viability, T/C (second compound 0.1 µM, first compound 0.1 µM) was 121% and the viability, T/C (second compound 0.1 µM, first compound 0.316 µM) was 104%. For the same compound, the viability, T/C (second compound 0.1 µM, first compound 1 µM) was 88.7%, the viability, T/C (second compound 0.1 µM, first compound 3.16 µM) was 97.3% and the viability, T/C (second compound 0.1 µM, first compound 10 µM) was 76.9%. It also gave a viability, T/C (second compound 0.316 µM, first compound 0.0316 µM) of 108%, a viability, T/C (second compound 0.316 µM, first compound 0.1 µM) of 104% and a viability, T/C (second compound 0.316 µM, first compound 0.316 µM) of 103%. The viability, T/C (second compound 0.316 µM, first compound 1 µM) was 102%, the viability, T/C (second compound 0.316 µM, first compound 3.16 µM) was 97.5% and the viability, T/C (second compound 0.316 µM, first compound 10 µM) was 81.5%. For the same compound, the viability, T/C (second compound 1 µM, first compound 0.0316 µM) was 113%, the viability, T/C (second compound 1 µM, first compound 0.1 µM) was 95.5% and the viability, T/C (second compound 1 µM, first compound 0.316 µM) was 97.6%. It also gave a viability, T/C (second compound 1 µM, first compound 1 µM) of 103%, a viability, T/C (second compound 1 µM, first compound 3.16 µM) of 87.8% and a viability, T/C (second compound 1 µM, first compound 10 µM) of 75.9%. The viability, T/C (second compound 3.16 µM, first compound 0.0316 µM) was 111%, the viability, T/C (second compound 3.16 µM, first compound 0.1 µM) was 104% and the viability, T/C (second compound 3.16 µM, first compound 0.316 µM) was 93.9%. For the same compound, the viability, T/C (second compound 3.16 µM, first compound 1 µM) was 95.6%, the viability, T/C (second compound 3.16 µM, first compound 3.16 µM) was 104% and the viability, T/C (second compound 3.16 µM, first compound 10 µM) was 88.4%. For the same compound, the viability, T/C (second compound 10 µM, first compound 0.0316 µM) was 116%, the viability, T/C (second compound 10 µM, first compound 0.1 µM) was 110% and the viability, T/C (second compound 10 µM, first compound 0.316 µM) was 119%. For the same compound, the viability, T/C (second compound 10 µM, first compound 1 µM) was 105%, the viability, T/C (second compound 10 µM, first compound 3.16 µM) was 105% and the viability, T/C (second compound 10 µM, first compound 10 µM) was 87.7%.
